{
  "source": "patent US7662824B2",
  "about": "“Acylhydrazones as kinase modulators” (Janssen Pharmaceutica NV, priority 2005, dated 2010)",
  "key": {"Aqueous solubility assay": {"test": "Aqueous solubility assay", "details": "water with 0.4% DMSO, kinetic from dmso stock", "quoted_text": "Water, PBS and aqueous HCl at pH2 having a final DMSO content of 0.4%, with the final DMSO concentration reaching 40 μM. Samples were placed in the incubator and shaken for 15 minutes."}, "c-Met [1]": {"target": "T1, c-Met (Homo sapiens, UniProt P08581)", "test": "Fluorescence polarization assay on the kinase activity of c-Met", "format": "biochemical", "parameters": "The c-Met kinase domain consists amino acid 1046-1390 of the c-Met protein; made in house; host or cells: Sf9 insect cells with baculovirus", "details": "6H-TEV-cMet, poly Gly4Tyr substrate, 10 μM ATP; read-out: c-Met FP Enz IC50", "excerpt": "A fluorescence polarization assay (FP) was developed for screening of compounds that decreases the kinase activity of c-Met.\nA protein (6H-TEV-cMet) comprising c-Met kinase domain was cloned, recombinantly expressed and purified following a procedure similar to that as described in Example A. The protein comprises a His tag consisting of six histidines at its N-terminal, a TEV protease cleavage site, and the c-Met kinase domain. The c-Met kinase domain consists amino acid 1046-1390 of the c-Met protein as listed in GenBank protein accession number P08581.\nFor the c-Met kinase assay, the 6H-TEV-cMet was used as the enzyme, and a poly Gly4Tyr peptide (Sigma, P-0275) was used as the substrate. The kinase reaction was performed in a volume of 10 μl in HE microplates (LJL Biosystems). Assay conditions were as follows: 100 mM HEPES pH 7.5, 0.01% Tween-20, 1 mM DTT, 5 mM MgCl2, 10 μM ATP, 10 μg/ml poly Gly4Tyr. The kinase reaction was initiated upon addition of 10 nM 6H-TEV-cMet. After a 12 minute incubation at room temperature the reaction was terminated with […] 50 mM EDTA.\nPhosphorylation of the peptide substrate was detected with PanVera Tyrosine Kinase Assay Kit, Green reagents (P2837). Five minutes after the addition of EDTA, 10 μl of antibody/tracer mix (Pan Vera reagents, 1:1:3 dilution of antibody: Tracer: FP dilution buffer, Cat. # P2837) was added to each well. Plates were allowed to incubate for 30 minutes at room temperature and fluorescence polarization was measured with an LJL Analyst instrument (Molecular Devices; Sunnyvale, Calif.) with excitation=485 nm filter and emission=530 nm filter. IC50 values were calculated from triplicate sets of data using Graphpad Prism software (Graphpad Software; San Diego, Calif.)."}, "c-Met [2]": {"target": "T1, c-Met", "test": "Delfia autophosphorylation kinase assay on the c-Met", "format": "biochemical", "parameters": "The purified His6 tagged cytoplasmic domain of c-Met was diluted to a concentration of 500 ng/ml; made in house; host or cells: Sf9 insect cells with recombinant baculovirus; Large-scale expression and purification were done by the contract lab Pan Vera", "details": "His6 tagged cytoplasmic domain of c-Met, 1 μM ATP; read-out: c-Met Delfia Autophos IC50", "method": "This example describes the cloning, expression, and purification of the cytoplasmic domain of c-Met which has the c-Met receptor tyrosine kinase activity.\nA DELFIA time resolved fluorescence assay was developed for screening of compounds that decreases the autophosphorylation thus the kinase activity of c-Met.\nThe DELFIA assay is non-radioactive. The autophophorylation of the c-Met is measured by an anti-phosphotyrosine antibody coupled to an Europium tag.\nA major advantage of this format is that it allowed for the development of an autophosphorylation assay using Ni-chelate plates which bind the hexa-his tag on the recombinant Met kinase. Autophosphorylation assay allows to use a known substrate, Met kinase itself, for the phosphorylation. The DELFIA Met autophosphorylation assay is very sensitive with a signal to noise ratio in excess of 50:1.\nThe assay procedure for screening is as follows. The purified His6 tagged cytoplasmic domain of c-Met was diluted to a concentration of 500 ng/ml in enzyme dilution buffer (50 mM Tris-HCl, pH8.0, 0.1% BSA) and dispensed to assay plates at a volume of 50 μl per well. Black opaque HisGrab Nickel coated 96 well plates (Pierce, Rockford, Ill.) were selected to run the assay. Next, 2.5 μl of compound in 40% DMSO was added to test wells, 2.5 μl of 40% DMSO only was added to the negative control wells. The autophosphorylation reaction was initiated upon the addition of 50 μl of reaction buffer, 50 mM Tris-HCl, pH 8.0, 10 mM MgCl2, 0.1 mM Na3VO4, 1 mM DTT, 1 μM ATP. Plates were incubated at room temperature for 1 hour followed by 2 washes with 200 μl/well of PBS. Europium conjugated anti-phosphotyrosine antibody, Eu-PY20 from Perkin Elmer was diluted to 50 ng/ml in Delfia AB buffer (Perkin Elmer, Boston, Mass.), added to the 96 well assay plates at a volume of […], and incubated at room temperature for 2 hours. Assay plates were then washed 4 times each with 200 μl/well of Delfia wash buffer (Perkin Elmer). After the final wash 150 μl of Delfia Enhancement solution (Perkin Elmer) was added to each well of the assay plate and incubated at room temperature for 1 hour. Plates were read on an LJL Analyst instrument (Molecular Devices; Sunnyvale, Calif.) with filter settings of 360 excitation, 620 emission, and 410 dichroic. IC50 values were calculated using Graphpad Prism software (Graphpad Software; San Diego, Calif.)."}},
  "data": [
    {"smiles": "CN(C)CCNC(=O)c1cc(Br)c2c(c1)NC(=O)/C2=N\\NC(=O)Cc1ccc2c(c1)CCO2", "note": "[Example 8, 4-Bromo-3-[(2-2,3-dihydro-benzofuran-5-yl-acetyl)-hydrazono]-2-oxo-2,3-dihydro-1H-indole-6-carboxylic acid (2-dimethylamino-ethyl)-amide]", "values": [
      {"measurement": "solubility at 15 min", "setting": "Aqueous solubility assay", "result": 41.1, "unit": "µM"},
      {"measurement": "IC50", "setting": "c-Met [1]", "result": 10, "unit": "nM"},
      {"measurement": "IC50", "setting": "c-Met [2]", "result": 1, "unit": "nM"}
    ]}
  ]
}
